Experimental data reported in patent US12421210B2, “Fused bicyclic heterocycles as therapeutic agents” (NEW YORK UNIVERSITY, priority 2018, dated 2025).

biological target: human NAMPT enzyme (His-hNAMPT) (Homo sapiens (Human), UniProt P43490); test: NAMPT enzymatic inhibition assay (fluorescence, NADH product); assay type: biochemical; details: [BPS]; read-out: NAMPT IC50 (μM) [BPS]
Sequence (P43490 whole entry): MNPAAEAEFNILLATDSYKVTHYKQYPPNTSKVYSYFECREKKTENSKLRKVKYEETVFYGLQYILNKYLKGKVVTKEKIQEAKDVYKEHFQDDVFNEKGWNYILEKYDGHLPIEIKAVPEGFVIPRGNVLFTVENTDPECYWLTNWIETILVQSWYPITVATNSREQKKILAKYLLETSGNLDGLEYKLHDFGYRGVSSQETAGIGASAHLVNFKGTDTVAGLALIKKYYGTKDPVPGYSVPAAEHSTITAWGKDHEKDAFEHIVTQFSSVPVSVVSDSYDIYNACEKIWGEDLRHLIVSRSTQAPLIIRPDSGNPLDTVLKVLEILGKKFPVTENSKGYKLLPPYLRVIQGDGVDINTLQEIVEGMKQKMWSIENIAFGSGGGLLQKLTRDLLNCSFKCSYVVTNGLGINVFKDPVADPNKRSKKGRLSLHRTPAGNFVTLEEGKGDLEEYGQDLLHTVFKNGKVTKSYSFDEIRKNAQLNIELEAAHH

Compound | IC50 [µM]
CC(C)(C)OC(=O)N1C[C@@H]2[C@@H](CNC(=O)c3cc(-c4cccnc4)on3)[C@@H]2C1 [Example 231, (1R,5S,6s)-tert-butyl 6-((5-(pyridin-3-yl)isoxazole-3-carboxamido)methyl)-3-azabicyclo[3.1.0]hexane-3-carboxylate] | 1 to 29
Cc1nc(C)c(C(=O)N2C[C@@H]3[C@@H](CCNC(=O)c4cc5cnccc5[nH]4)[C@@H]3C2)o1 [Example 113, N-(2-((1R,5S,6s)-3-(2,4-dimethyloxazole-5-carbonyl)-3-azabicyclo[3.1.0]hexan-6-yl)ethyl)-1H-pyrrolo[3,2-c]pyridine-2-carboxamide] | 0.01 to 0.49
CC(C)(C)OC(=O)N1C[C@@H]2[C@@H](CCNC(=O)N3CCc4sccc4C3)[C@@H]2C1 [Example 16, (1R,5S,6s)-tert-butyl 6-(2-(4,5,6,7-tetrahydrothioeno[3,2-c]pyridine-5-carboxamido)ethyl)-3-azabicyclo[3.1.0]hexane-3-carboxylate] | 0.01 to 0.49
O=C(NCC[C@@H]1[C@H]2CN(C(=O)N3CCOCC3)C[C@@H]12)c1cc2ccncc2o1 [Example 58, N-(2-((1R,5S,6s)-3-(morpholine-4-carbonyl)-3-azabicyclo[3.1.0]hexan-6-yl)ethyl)furo[2,3-c]pyridine-2-carboxamide] | 0.01 to 0.49
CC(C)(C)OC(=O)N1C[C@@H]2[C@@H](CCNC(=O)N3Cc4ccncc4C3)[C@@H]2C1 [Example 20, (1R,5S,6s)-tert-butyl 6-(2-(2,3-dihydro-1H-pyrrolo[3,4-c]pyridine-2-carboxamido)ethyl)-3-azabicyclo[3.1.0]hexane-3-carboxylate] | 0.01 to 0.49
CC(C)(C)OC(=O)N1C[C@@H]2[C@@H](CCNC(=O)c3nc4ccncc4s3)[C@@H]2C1 [Example 11, (1R,5S,6s)-tert-butyl 6-(2-(thiazolo[5,4-c]pyridine-2-carboxamido)ethyl)-3-azabicyclo[3.1.0]hexane-3-carboxylate] | 0.5 to 0.99
CC(C)(C)OC(=O)N1C[C@@H]2[C@@H](CCNC(=O)c3cc4ccncc4o3)[C@@H]2C1 [Example 5] | 0.01 to 0.49
O=C(NCC[C@@H]1[C@H]2CN(C(=O)c3ccc(F)cc3)C[C@@H]12)c1cc(-c2cccnc2)on1 [Example 110, N-(2-((1R,5S,6s)-3-(4-fluorobenzoyl)-3-azabicyclo[3.1.0]hexan-6-yl)ethyl)-5-(pyridin-3-yl)isoxazole-3-carboxamide] | 0.01 to 0.49
Cc1nc(C)c(C(=O)N2C[C@@H]3[C@@H](CCNC(=O)c4cc(-c5cccnc5)on4)[C@@H]3C2)o1 [Example 111, N-(2-((1R,5S,6s)-3-(2,4-dimethyloxazole-5-carbonyl)-3-azabicyclo[3.1.0]hexan-6-yl)ethyl)-5-(pyridin-3-yl)isoxazole-3-carboxamide] | 0.01 to 0.49
CC(C)(C)OC(=O)N1C[C@H]2C[C@@H](CCNC(=O)COc3cccnc3)C[C@H]2C1 [Example 275, (3aR,5r,6aS)-tert-butyl 5-(2-(2-(pyridin-3-yloxy)acetamido)ethyl)hexahydrocyclopenta[c]pyrrole-2(1H)-carboxylate] | 0.5 to 0.99
CC(C)(C)CNC(=O)N1C[C@@H]2[C@@H](CCNC(=O)c3cc4ccncc4o3)[C@@H]2C1 [Example 69, N-(2-((1R,5S,6s)-3-(neopentylcarbamoyl)-3-azabicyclo[3.1.0]hexan-6-yl)ethyl)furo[2,3-c]pyridine-2-carboxamide] | 0.5 to 0.99

Second part, the compound after the results:

IC50 [µM] | Compound
0.5 to 0.99 | O=C(NCC[C@@H]1[C@H]2CN(C(=O)NC3CCOCC3)C[C@@H]12)c1cc2ccncc2o1 [Example 59, N-(2-((1R,5S,6s)-3-((tetrahydro-2H-pyran-4-yl)carbamoyl)-3-azabicyclo[3.1.0]hexan-6-yl)ethyl)furo[2,3-c]pyridine-2-carboxamide]
0.01 to 0.49 | Nc1ccc(/C=C/C(=O)NCC[C@@H]2[C@H]3CN(c4ccccc4)C(=O)[C@@H]23)cn1 (racemic) [Example 259, (E)-3-(6-aminopyridin-3-yl)-N-(2-((1S,5R,6R)-2-oxo-3-phenyl-3-azabicyclo[3.1.0]hexan-6-yl)ethyl)acrylamide and (E)-3-(6-aminopyridin-3-yl)-N-(2-((1R,5S,6S)-2-oxo-3-phenyl-3-azabicyclo[3.1.0]hexan-6-yl)ethyl)acrylamide]
0.01 to 0.49 | Nc1ccc(/C=C/C(=O)NCC[C@@H]2[C@H]3CN(c4ccccc4)C[C@@H]23)cn1 [Example 192, (E)-3-(6-aminopyridin-3-yl)-N-(2-((1R,5S,6s)-3-phenyl-3-azabicyclo[3.1.0]hexan-6-yl)ethyl)acrylamide]
0.01 to 0.49 | O=C(NCC[C@@H]1[C@H]2CN(C(=O)OC3CCOCC3)C[C@@H]12)c1cc2ccncc2o1 [Example 61, (1R,5S,6s)-3-tetrahydro-2H-pyran-4-yl 6-(2-(furo[2,3-c]pyridine-2-carboxamido)ethyl)-3-azabicyclo[3.1.0]hexane-3-carboxylate]
0.01 to 0.49 | O=C(NCC[C@@H]1[C@H]2CN(C(=O)c3ccccc3)C[C@@H]12)c1cc2ccncc2o1 [Example 30, N-(2-((1R,5S,6s)-3-benzoyl-3-azabicyclo[3.1.0]hexan-6-yl)ethyl)furo[2,3-c]pyridine-2-carboxamide]
0.01 to 0.49 | O=C(/C=C/c1cccnc1)NCC[C@@H]1[C@H]2CN(C(=O)CC3CCOCC3)C[C@@H]12 [Example 104]
0.01 to 0.49 | O=C(NCC[C@@H]1[C@H]2CN(C(=O)CC3CCOCC3)C[C@@H]12)c1cc(-c2cccnc2)on1 [Example 109, 5-(pyridin-3-yl)-N-(2-((1R,5S,6s)-3-(2-(tetrahydro-2H-pyran-4-yl)acetyl)-3-azabicyclo[3.1.0]hexan-6-yl)ethyl)isoxazole-3-carboxamide]

same assay, conditions: [HDB]; read-out: NAMPT IC50 (μM) [HDB]

Compound | IC50 [µM]
CCOP(=O)(OCC)c1cccc(N2C[C@@H]3[C@@H](CCNC(=O)/C=C/c4cccnc4)[C@@H]3C2)c1 [Example 338, diethyl (3-((1R,5S,6s)-6-(2-((E)-3-(pyridin-3-yl)acrylamido)ethyl)-3-azabicyclo[3.1.0]hexan-3-yl)phenyl)phosphonate] | 0.01 to 0.49
O=C(NCC[C@@H]1[C@H]2CN(c3nc(Cl)ncc3F)C[C@@H]12)c1cc2ccncc2o1 [Example 221, N-(2-((1R,5S,6s)-3-(2-chloro-5-fluoropyrimidin-4-yl)-3-azabicyclo[3.1.0]hexan-6-yl)ethyl)furo[2,3-c]pyridine-2-carboxamide] | 0.01 to 0.49
O=C(NCC[C@@H]1[C@H]2CN(c3ccc(F)cc3)C(=O)[C@@H]12)N1Cc2ccccc2C1 (racemic) [Example 266, N-(2-((1R,5S,6S)-3-(4-fluorophenyl)-2-oxo-3-azabicyclo[3.1.0]hexan-6-yl)ethyl)isoindoline-2-carboxamide and N-(2-((1S,5R,6R)-3-(4-fluorophenyl)-2-oxo-3-azabicyclo[3.1.0]hexan-6-yl)ethyl)isoindoline-2-carboxamide] | 0.01 to 0.49

Other lines, results leading:

IC50 [µM] | Compound
< 0.01 | CC(c1cccc(F)c1)N1C[C@@H]2[C@@H](CCNC(=O)/C=C/c3cccnc3)[C@@H]2C1 (stereo partly drawn) [Example 323, (E)-N-(2-((1R,5S,6s)-3-(1-(3-fluorophenyl)ethyl)-3-azabicyclo[3.1.0]hexan-6-yl)ethyl)-3-(pyridin-3-yl)acrylamide]
0.01 to 0.49 | CC(C)Oc1ncc(F)c(N2C[C@@H]3[C@@H](CCNC(=O)/C=C/c4cccnc4)[C@@H]3C2)n1 [Example 303, (E)-N-(2-((1R,5S,6s)-3-(5-fluoro-2-isopropoxypyrimidin-4-yl)-3-azabicyclo[3.1.0]hexan-6-yl)ethyl)-3-(pyridin-3-yl)acrylamide]
0.01 to 0.49 | O=C(/C=C/c1cccnc1)NCC[C@@H]1[C@H]2CN(C(c3ccccc3)C3CCOCC3)C[C@@H]12 (stereo partly drawn) [Example 335, (E)-N-(2-((1R,5S,6s)-3-(phenyl(tetrahydro-2H-pyran-4-yl)methyl)-3-azabicyclo[3.1.0]hexan-6-yl)ethyl)-3-(pyridin-3-yl)acrylamide]
0.01 to 0.49 | CS(=O)(=O)c1cccc(N2C[C@@H]3[C@@H](CCNC(=O)/C=C/c4cccnc4)[C@@H]3C2)c1 [Example 152, (E)-N-(2-((1R,5S,6s)-3-(3-(methylsulfonyl)phenyl)-3-azabicyclo[3.1.0]hexan-6-yl)ethyl)-3-(pyridin-3-yl)acrylamide]
0.01 to 0.49 | O=C(/C=C/c1cccnc1)NCC[C@@H]1[C@H]2CN(c3ncc(Cl)cn3)C[C@@H]12 [Example 164, (E)-N-(2-((1R,5S,6s)-3-(5-chloropyrimidin-2-yl)-3-azabicyclo[3.1.0]hexan-6-yl)ethyl)-3-(pyridin-3-yl)acrylamide]
0.01 to 0.49 | O=C(NCC[C@@H]1[C@H]2CN(C(=O)c3ccccc3)C[C@@H]12)c1cc2ccncc2o1 [Example 30, N-(2-((1R,5S,6s)-3-benzoyl-3-azabicyclo[3.1.0]hexan-6-yl)ethyl)furo[2,3-c]pyridine-2-carboxamide]
< 0.01 | Nc1ccc(/C=C/C(=O)NCC[C@@H]2[C@H]3CN(c4cccc(F)c4)C[C@@H]23)cn1 [Example 201, (E)-3-(6-aminopyridin-3-yl)-N-(2-((1R,5S,6s)-3-(3-fluorophenyl)-3-azabicyclo[3.1.0]hexan-6-yl)ethyl)acrylamide]
0.01 to 0.49 | O=C(/C=C/c1ccccn1)NCC[C@@H]1[C@H]2CN(c3nc(Cl)ncc3F)C[C@@H]12 [Example 209, (E)-N-(2-((1R,5S,6s)-3-(2-chloro-5-fluoropyrimidin-4-yl)-3-azabicyclo[3.1.0]hexan-6-yl)ethyl)-3-(pyridin-2-yl)acrylamide]
0.01 to 0.49 | O=C(/C=C/c1cccnc1)NCC[C@@H]1[C@H]2CN(Cc3ccc(C(F)(F)F)cc3)C[C@@H]12 [Example 244, (E)-3-(pyridin-3-yl)-N-(2-((1R,5S,6s)-3-(4-(trifluoromethyl)benzyl)-3-azabicyclo[3.1.0]hexan-6-yl)ethyl)acrylamide]
0.01 to 0.49 | O=C(/C=C/c1ccncc1)NCC[C@@H]1[C@H]2CN(c3nc(Cl)ncc3F)C[C@@H]12 [Example 214, (E)-N-(2-((1R,5S,6s)-3-(2-chloro-5-fluoropyrimidin-4-yl)-3-azabicyclo[3.1.0]hexan-6-yl)ethyl)-3-(pyridin-4-yl)acrylamide]
0.01 to 0.49 | O=C(/C=C/c1cccnc1)NCC[C@@H]1[C@H]2CN(Cc3ccccc3)C[C@@H]12 [Example 243, (E)-N-(2-((1R,5S,6s)-3-benzyl-3-azabicyclo[3.1.0]hexan-6-yl)ethyl)-3-(pyridin-3-yl)acrylamide]
< 0.01 | O=C(/C=C/c1cccnc1)NCC[C@@H]1[C@H]2CN(c3ccnc(C(F)(F)F)c3)C[C@@H]12 [Example 159, (E)-3-(pyridin-3-yl)-N-(2-((1R,5S,6s)-3-(2-(trifluoromethyl)pyridin-4-yl)-3-azabicyclo[3.1.0]hexan-6-yl)ethyl)acrylamide]
